Data reported in EP4775570A1, “CYP11A1 INHIBITOR, PREPARATION METHOD THEREFOR AND USE THEREOF” (Shenzhen Zhongge Biological Technology Co., Ltd., priority 2023, dated 2025).

Legend:
[1] = test system: VCaP castration-resistant prostate cancer subcutaneous transplant tumor model; experiment: In vivo pharmacodynamic study in a VCaP castration-resistant prostate cancer subcutaneous transplant tumor model; set-up: species or system SCID-Beige mice; conditions: 30mg/kg BID oral + prednisone 0.6mg/kg QD, castrated tumor-bearing mice, 32 days
Description: Animals: experimental male SCID-Beige mice, 6-8-weeks old or 18-22g, provided by Beijing Vital River Laboratory Animal Technology Co., Ltd.
Experiment procedures: all experimental animals were kept within specific-pathogen-free animal barrier facility, and allowed 3 days of adaptation before the experiment began. VCaP tumor cells were in vitro cultured as monolayer in DMEM complete medium (with 10% fetal bovine serum and 1% penicillin & streptomycin) at 37°C in air containing 5% CO2. Tumor cells were routinely passaged 2-3 times a week, and cells in exponential growth phase were collected and counted for tumor cell inoculation. 10x10^6 VCaP tumor cells were resuspended in 0.1ml PBS, thoroughly mixed with 0.1ml matrigel, and then inoculated subcutaneously on the right flank of each mouse to form a tumor. The tumor-bearing mice were allowed to develop to an average tumor volume of around 200mm^3 and underwent castration surgery. The tumor volumes of all mice were measured after one week of castration surgery. Suitable tumor-bearing mice were selected and assigned randomly into the following groups: blank control group, prednisone (0.6mg/kg, QD) group, abiraterone (33.73mg/kg, QD) + prednisone (0.6mg/kg, QD) group, ODM-208 (30mg/kg, BID) + prednisone (0.6mg/kg, QD) group, and the compound of the present disclosure (30mg/kg, BID) + prednisone (0.6mg/kg, QD) group. Animals in blank control group were orally administered with vehicles (0.5%MC+0.5%Tween80 and 0.5%CMCNa), and the animals in other groups were orally administered with corresponding compound. The experiment lasted for 32 days, and during the experiment, the animals in each group were measured for tumor volume and body weight twice a week.

[2] = PK study, intravenous and oral administration, plasma LC-MS/MS; format: in vivo; conditions: both sexes, 5 mg/kg, oral administration of 5 mpk, species not given (ICR mice or SD Rat)
Description: ICR mice (male/female, total 6 animals) were assigned to two groups for oral administration and intravenous administration, respectively, with 3 mice in each group. Before administration, the animals were fasted for 10-14 hours, with water available ad lib.
SD Rat (male/female, total 6 animals) were assigned to two groups for oral administration and intravenous administration, respectively, with 3 mice in each group. Before administration, the animals were fasted for 10-14 hours, with water available ad lib.
The compounds to be tested were weighed out in accordance with intended dosage, formulated with vehicles (5% DMSO + 10% Solutol + 85% physiological saline) to dosage form at appropriate concentrations (administered intravenously and orally in rats or mice at a volume of 5 mL/kg and 10 mL/kg, respectively). The dosage form for intravenous injection is a clear solution, and the dosage form for oral administration is a clear solution or homogenous suspension.
Administration to animals was conducted through intravenous injection and oral gavage, and blood samples were collected at 0.033, 0.083, 0.25, 0.5, 1, 2, 4, 8, and 24 hours after intravenous injection, or at 0.083, 0.25, 0.5, 1, 2, 4, 6, 8, and 24 hours after oral administration. After centrifugation of whole blood samples at 4°C and 6,800g for 6 minutes, the upper layers of plasma were stored at -80°C refrigerator before analysis.
The DMSO stock solutions of the substance to be tested were diluted with methanol or acetonitrile solution to serial working solutions and added to blank plasma matrix to formulate samples for standard curve and quality control. An appropriate volume of plasma sample was added with appropriate fold of methanol or acetonitrile containing internal standards, according to response, for protein precipitation. After centrifugation of all samples at 4°C and 18,000g for 10 min, appropriate volumes of supernatant were taken for LC-MS/MS analysis.
Plasma drug concentration-time curves were plotted in accordance with tested concentrations, and pharmacokinetic parameters were calculated based on non-compartmental model using WinNonlin software, including half-life (T1/2), area under the drug concentration-time curve (AUC0-t), clearance rate (CL), steady-state distribution volume (Vss), bioavailability (F), etc.

[3] = test system: testosterone, progesterone, corticosterone; experiment: LC-MS detection of testosterone, progesterone and corticosterone in mouse tumors and adrenal glands; format: in vivo; conditions: mouse tumors and adrenal glands, VCaP model
Excerpt: • Mouse tumors were homogenized using PBS in a 1:5 ratio (tumor weight (g): PBS volume (mL), w/v); • Mouse adrenal glands were homogenized using PBS in a 1:10 ratio (adrenal gland weight (g): PBS volume (mL), w/v); • Standard sample: testosterone (LGC, C17322500), progesterone (MCE, HY-N0437), adrenal ketone (MCE, HY-B1618), and standard solution of test substance.
Experiment procedures: since the three markers, i.e., testosterone, progesterone, and adrenal ketone, are all endogenous substances and present in the blank matrix as well, PBS was alternatively used as matrix in the production of the standard curve.
Testosterone: multiple reaction monitoring (MRM) method was used for detecting the concentrations of testosterone in mouse tumors and adrenal glands. Mass spectrum: AB Sciex Triple Quad 6500+; liquid chromatography: Shimadzu 40A, column: Waters XBridge BEH C18 2.5 µm 2.1*50mm, testosterone ion pair: 289.4/97.2. Both tumor and adrenal tissues were treated with methanol as precipitant and tolbutamide as internal standard for sample pretreatment, with linear range in 50-50,000pg/mL.
Progesterone and corticosterone: multi-reaction detection method (MRM) was used for detecting the concentrations of progesterone and corticosterone in mouse tumors and adrenal glands. Mass spectrum: AB Sciex Triple Quad 6500+; liquid chromatography: Shimadzu 40A, column: Waters XSelect HSS T3 2.5 µm 2.1*50mm, progesterone ion pair: 315.4/97.2, adrenone ion pair: 347.4/121.3. For tumor tissues, acetonitrile was used as precipitant and propranolol diclofenac as internal standard for sample pretreatment, with linear ranges in 0.05-10 ng/mL of progesterone and 0.10-20 ng/mL of corticosterone. For adrenal tissues, methanol was used as precipitant and propranolol diclofenac as internal standard for sample pretreatment, with linear ranges in 5-2,500 ng/mL of progesterone and 5-2,500 ng/mL of corticosterone.

Compound: CS(=O)(=O)N1CCC(COc2coc(CN3Cc4ccccc4C3)cc2=O)CC1 [ODM-208, reference compound]
- tumor inhibition rate TGI [1]: 85%
- AUC [2]: 1310 ng·h/mL
- Cmax [2]: 807 ng/mL
- bioavailability ([2]; read-out: bioavailability (F)): 59%
- half-life ([2]; read-out: half-life (t1/2) (converted)): 1.8 h
- secretion of testosterone, progesterone and corticosterone in tumors and adrenal glands (in words) [3]: significantly inhibits
